Results from ChEMBL document CHEMBL1201862, “PubChem BioAssay data set” (2004).
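Five compound concentrations were applied to cells in 96-well plates for 48 hours; endpoints were derived by simple linear interpolation of the resulting dose-response curve. The concentration for 50% growth inhibition is given as GI50.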 Active and inactive are the calls of the source. No stated cut-off is given here; in the data, active = GI50 up to about 1.1 µM and inactive = higher.

Experiments:
Assay in all cases: NCI tumour cell line growth inhibition, 48 h
UACC-62 = system: UACC-62
OVCAR-4 = system: OVCAR-4
RXF 393 = system: RXF 393
PC-3 = system: PC-3
786-0 = system: 786-0
OVCAR-3 = system: OVCAR-3
ACHN = system: ACHN
EKVX = system: EKVX
OVCAR-8 = system: OVCAR-8
HOP-62 = system: HOP-62
NCI/ADR-RES = system: NCI/ADR-RES
HT-29 = system: HT-29
RPMI-8226 = system: RPMI-8226
SK-MEL-2 = system: SK-MEL-2
K562 = system: K562
HCC 2998 = system: HCC 2998
MCF7 = system: MCF7
SF-539 = system: SF-539
MOLT-4 = system: MOLT-4

Measured: GI50

CS(=O)(=O)c1nc(-c2cc3c(c(S(C)(=O)=O)n2)CCCC3)cc2c1CCCCC2
inactive: UACC-62 > 100 µM | OVCAR-4 > 100 µM | RXF 393 48.6 µM | PC-3 > 100 µM | 786-0 > 100 µM | OVCAR-3 > 100 µM | ACHN > 100 µM | EKVX > 100 µM | OVCAR-8 32.5 µM | HOP-62 31.6 µM | NCI/ADR-RES > 100 µM | HT-29 > 100 µM | RPMI-8226 > 100 µM | SK-MEL-2 > 100 µM

C/C(=N\NC(=S)N1CCN(C)CC1)c1nc2cccnc2[nH]1
inactive: UACC-62 > 100 µM | K562 92.3 µM | OVCAR-4 > 100 µM | HCC 2998 > 100 µM | MCF7 20.4 µM | PC-3 > 100 µM | 786-0 > 100 µM | OVCAR-3 > 100 µM | ACHN > 100 µM | EKVX > 100 µM | OVCAR-8 > 100 µM | SF-539 > 100 µM | HOP-62 > 100 µM | NCI/ADR-RES > 100 µM | HT-29 > 100 µM | RPMI-8226 > 100 µM | MOLT-4 > 100 µM

COc1ccc(-[n+]2nc(S(=O)(=O)O)c(/C=C/c3ccc(N(C)C)cc3)cc2C#N)cc1
inactive: UACC-62 > 100 µM | K562 > 100 µM | OVCAR-4 > 100 µM | HCC 2998 > 100 µM | MCF7 > 100 µM | PC-3 > 100 µM | 786-0 > 100 µM | OVCAR-3 > 100 µM | ACHN > 100 µM | EKVX > 100 µM | OVCAR-8 > 100 µM | SF-539 > 100 µM | HOP-62 > 100 µM | NCI/ADR-RES > 100 µM | HT-29 > 100 µM | RPMI-8226 > 100 µM | SK-MEL-2 > 100 µM | MOLT-4 > 100 µM

CC(=O)Nc1ccc(Nc2nc(=O)[nH]c(=O)[nH]2)cc1
inactive: UACC-62 > 100 µM | OVCAR-4 > 100 µM | HCC 2998 > 100 µM | MCF7 > 100 µM | PC-3 > 100 µM | 786-0 > 100 µM | OVCAR-3 > 100 µM | ACHN > 100 µM | EKVX > 100 µM | OVCAR-8 > 100 µM | SF-539 > 100 µM | HOP-62 > 100 µM | NCI/ADR-RES > 100 µM | HT-29 > 100 µM | RPMI-8226 > 100 µM | SK-MEL-2 > 100 µM

O=C(O)CCSCCCN1C(=O)c2ccccc2C1=O
inactive: UACC-62 > 100 µM | K562 > 100 µM | OVCAR-4 > 100 µM | HCC 2998 > 100 µM | RXF 393 > 100 µM | 786-0 > 100 µM | OVCAR-3 > 100 µM | ACHN > 100 µM | EKVX > 100 µM | OVCAR-8 > 100 µM | SF-539 > 100 µM | HT-29 > 100 µM | RPMI-8226 > 100 µM | SK-MEL-2 > 100 µM | MOLT-4 > 100 µM

COC(=O)[C@H](CC(C)C)NC1=C(Cl)C(=O)c2c(O)ccc(O)c2C1=O
inactive: UACC-62 > 10 µM | K562 > 10 µM | OVCAR-4 > 10 µM | HCC 2998 > 10 µM | RXF 393 > 10 µM | PC-3 > 10 µM | 786-0 6.97 µM | OVCAR-3 1.73 µM | ACHN > 10 µM | EKVX > 10 µM | OVCAR-8 > 10 µM | SF-539 9.02 µM | HOP-62 > 10 µM | NCI/ADR-RES > 10 µM | HT-29 3.01 µM | RPMI-8226 4.81 µM | SK-MEL-2 > 10 µM | MOLT-4 3.52 µM

CN(C)CCc1ccc(Cl)cc1Cl
inactive: UACC-62 > 100 µM | K562 > 100 µM | OVCAR-4 > 100 µM | HCC 2998 > 100 µM | RXF 393 > 100 µM | 786-0 > 100 µM | ACHN > 100 µM | EKVX > 100 µM | OVCAR-8 > 100 µM | SF-539 > 100 µM | HOP-62 > 100 µM | HT-29 > 100 µM | RPMI-8226 > 100 µM | SK-MEL-2 > 100 µM | MOLT-4 > 100 µM

Cc1cn(C2CC(/[N+]([O-])=N\Nc3ccc([N+](=O)[O-])cc3)C(CO)O2)c(=O)[nH]c1=O (centres undefined)
inactive: UACC-62 > 100 µM | K562 > 100 µM | HCC 2998 40.7 µM | RXF 393 > 100 µM | PC-3 > 100 µM | 786-0 > 100 µM | OVCAR-3 > 100 µM | ACHN > 100 µM | EKVX > 100 µM | OVCAR-8 > 100 µM | SF-539 > 100 µM | HOP-62 > 100 µM | NCI/ADR-RES > 100 µM | HT-29 > 100 µM | RPMI-8226 42.8 µM | MOLT-4 22.2 µM

COC(=O)C1C(OC(=O)c2ccccc2)CC2CCC1N2C(N)=O (centres undefined)
inactive: UACC-62 > 100 µM | K562 > 100 µM | OVCAR-4 > 100 µM | HCC 2998 > 100 µM | MCF7 > 100 µM | PC-3 > 100 µM | 786-0 > 100 µM | OVCAR-3 > 100 µM | ACHN > 100 µM | EKVX > 100 µM | OVCAR-8 > 100 µM | SF-539 > 100 µM | HOP-62 > 100 µM | NCI/ADR-RES > 100 µM | HT-29 > 100 µM | RPMI-8226 > 100 µM | SK-MEL-2 > 100 µM | MOLT-4 > 100 µM

COc1ccc(-c2nc(-c3cc4c(ccc5ccccc54)oc3=O)cs2)cc1
inactive: UACC-62 > 100 µM | K562 > 100 µM | OVCAR-4 43.7 µM | HCC 2998 > 100 µM | RXF 393 > 100 µM | MCF7 > 100 µM | PC-3 > 100 µM | 786-0 33.2 µM | ACHN > 100 µM | EKVX > 100 µM | SF-539 > 100 µM | HOP-62 73.3 µM | HT-29 > 100 µM | RPMI-8226 > 100 µM | SK-MEL-2 > 100 µM | MOLT-4 > 100 µM

C/C=C1\C(=O)OC2CCN3CCC(COC(=O)C(C)(O)C(C)C1O)C23 (centres undefined)
inactive: UACC-62 > 100 µM | K562 > 100 µM | OVCAR-4 > 100 µM | HCC 2998 > 100 µM | MCF7 > 100 µM | PC-3 > 100 µM | 786-0 > 100 µM | ACHN > 100 µM | EKVX > 100 µM | OVCAR-8 > 100 µM | SF-539 > 100 µM | NCI/ADR-RES > 100 µM | HT-29 > 100 µM | SK-MEL-2 > 100 µM | MOLT-4 > 100 µM

Cc1cc(C#N)c(Nc2c(C)cccc2[N+](=O)[O-])s1
inactive: UACC-62 37.9 µM | K562 > 100 µM | OVCAR-4 57.4 µM | HCC 2998 87.7 µM | RXF 393 16.4 µM | PC-3 17.3 µM | 786-0 26.9 µM | OVCAR-3 29.5 µM | ACHN 49.7 µM | EKVX 27.3 µM | OVCAR-8 42.9 µM | SF-539 43.2 µM | HOP-62 25.4 µM | NCI/ADR-RES 25.4 µM | RPMI-8226 > 100 µM | MOLT-4 92 µM
